From ChEMBL document CHEMBL5316313, “Discovery of Novel 3-Phenylpiperidine Derivatives Targeting the β-Catenin/B-Cell Lymphoma 9 Interaction as a Single Agent and in Combination with the Anti-PD-1 Antibody for the Treatment of Colorectal Cancer” (J Med Chem, 2023)
Activity calls are given as the source filed them. The rule behind the calls is not given here.

Tests used:
[1] = Microsomal stability in mouse liver microsomes assessed as half life at […] and measured upto 60 mins by LC-MS/MS analysis; format: ADME, Microsome
[2] = Microsomal stability in mouse liver microsomes assessed as intrinsic clearance at […] and measured upto 60 mins by LC-MS/MS analysis; format: ADME, Microsome; settings: read-out: CLH
[3] = Microsomal stability in human liver microsomes assessed as half life at […] and measured upto 60 mins by LC-MS/MS analysis; format: ADME, Microsome
HEK293 = experiment: Induction of apoptosis in Wnt-independent human HEK293 cells assessed as late apoptotic cells at 20 uM incubated for 24 hrs by Annexin V-Alexa Fluor 647/PI staining based flow cytomtery (Rvb=10.5%); format: functional
HCT-116 [4] = experiment: Induction of apoptosis in Wnt-dependent human HCT-116 cells assessed as necrotic cells at 10 uM incubated for 24 hrs by Annexin V-Alexa Fluor 647/PI staining based flow cytomtery (Rvb=1.47%); format: functional
HCT-116 [5] = experiment: Induction of apoptosis in Wnt-dependent human HCT-116 cells assessed as late apoptotic cells at 20 uM incubated for 24 hrs by Annexin V-Alexa Fluor 647/PI staining based flow cytomtery (Rvb=14.7%); format: functional
HCT-116 [6] = experiment: Induction of apoptosis in Wnt-dependent human HCT-116 cells assessed as viable cells at 20 uM incubated for 24 hrs by Annexin V-Alexa Fluor 647/PI staining based flow cytomtery (Rvb=69.5%); format: functional; settings: read-out: Activity
CT26 [7] = experiment: Induction of apoptosis in Wnt-dependent mouse CT26 cells assessed as necrotic cells at 10 uM incubated for 24 hrs by Annexin V-Alexa Fluor 647/PI staining based flow cytomtery (Rvb=1.04%); format: functional
CT26 [8] = experiment: Induction of apoptosis in Wnt-dependent mouse CT26 cells assessed as necrotic cells at 20 uM incubated for 24 hrs by Annexin V-Alexa Fluor 647/PI staining based flow cytomtery (Rvb=1.04%); format: functional
CT26 [9] = experiment: Induction of apoptosis in Wnt-dependent mouse CT26 cells assessed as viable cells at 10 uM incubated for 24 hrs by Annexin V-Alexa Fluor 647/PI staining based flow cytomtery (Rvb=70.7%); format: functional; settings: read-out: Activity
RKO = experiment: Antiproliferative activity against Wnt-independent human RKO cells assessed as cell growth inhibition at 40 uM incubated for 48 hrs by CellTiter-Glo assay; format: functional, cell-based
EL4 = experiment: Cytotoxicity against CFSE labeled SIINFEKL activated OT-1 mouse derived EL4 cells assessed as change in antigen specific cell viability at 1 to 10 uM preincubated with compound for 24 hrs followed by co-cultured with C57BL/6 mouse splenocyte derived CD8+ T cells in presence of anti-PD-1 antibody cotreatment by flow cytometry; format: functional, cell-based; settings: dose 1-10 µM
CT26 [10] = experiment: Antitumor activity against mouse CT26 cells xenografted in BALB/c mouse assessed as tumor growth inhibition at 10 to 30 mg/kg, ip QD and measured upto 9 days; format: functional, organism-based; settings: dose 10-30 mg/kg, time <= 9.0 day
[11] = Toxicity in BALB/c mouse xenografted with mouse CT26 cells assessed as body weight loss at 30 mg/kg, ip QD and measured upto 9 days; format: organism-based; settings: in vivo, 216 h, time < 9 day
[12] = Toxicity in BALB/c mouse xenografted with mouse CT26 cells assessed as adverse effect at 30 mg/kg, ip QD and measured upto 9 days in presence of anti-PD-1 antibody cotreatment at 10 mg/kg,ip BIW; format: organism-based; settings: in vivo, 216 h, time < 9 day
[13] = Toxicity in BALB/c mouse xenografted with mouse CT26 cells assessed as pathological changes in heart at 30 mg/kg, ip QD by hematoxylin and eosin staining based microscopic analysis; format: organism-based; settings: in vivo
[14] = Toxicity in BALB/c mouse xenografted with mouse CT26 cells assessed as pathological changes in liver at 30 mg/kg, ip QD in presence of anti-PD-1 antibody cotreatment at 10 mg/kg,ip BIW by hematoxylin and eosin staining based microscopic analysis; format: organism-based; settings: in vivo
[15] = AUC (0 to infinity) in Sprague-Dawley rat at 21 mg/kg, ip and measured upto 24 hrs by LC-MS analysis; format: ADME, organism-based; design: time < 24 hrs, dose 21 mg/kg, route ip; settings: in vivo
CT26 [16] = experiment: Synergistic antitumor activity in mouse CT26 cells xenografted in BALB/c mouse assessed as increase in CD8+ T cell infiltration into tumor at 30 mg/kg, ip QD in presence of anti-PD-1 antibody cotreatment at 10 mg/kg,ip BIW by flow cytometry; format: functional, organism-based
CT26 [17] = experiment: Synergistic antitumor activity in mouse CT26 cells xenografted in BALB/c mouse assessed as increase in granzyme B-positive CD8+ T cell infiltration into tumor at 30 mg/kg, ip QD in presence of anti-PD-1 antibody cotreatment at 10 mg/kg,ip BIW by flow cytometry; format: functional, organism-based
CT26 [18] = experiment: Antitumor activity in mouse CT26 cells xenografted in BALB/c mouse assessed as increase in IFNgamma-positive CD8+ T cell infiltration into tumor at 30 mg/kg, ip QD by flow cytometry; format: functional, organism-based
CT26 [19] = experiment: Antitumor activity in mouse CT26 cells xenografted in BALB/c mouse assessed as increase in IFNG mRNA expression level in tumor at 30 mg/kg, ip QD by qRT-PCR analysis; format: functional, organism-based
CT26 [20] = experiment: Synergistic antitumor activity in mouse CT26 cells xenografted in BALB/c mouse assessed as increase in Cd8 mRNA expression level in tumor at 30 mg/kg, ip QD in presence of anti-PD-1 antibody cotreatment at 10 mg/kg,ip BIW by qRT-PCR analysis; format: functional, organism-based
CT26 [21] = experiment: Synergistic antitumor activity in mouse CT26 cells xenografted in BALB/c mouse assessed as increase in IFNG mRNA expression level in tumor at 30 mg/kg, ip QD in presence of anti-PD-1 antibody cotreatment at 10 mg/kg,ip BIW by qRT-PCR analysis; format: functional, organism-based
CT26 [22] = settings: Mus musculus, BALB/c, dose 30.0 mg/kg, route ip
Description: In vivo inhibition of Wnt signaling pathway in mouse CT26 cells implanted in BALB/c mouse assessed as reduction in Axin2 mRNA expression level in tumor at 30 mg/kg, ip QD by qRT-PCR analysis

CT26 [23] = settings: Mus musculus, BALB/c, dose 30.0 mg/kg, route ip; remark: listed apart in the source
Description: In vivo inhibition of Wnt signaling pathway in mouse CT26 cells implanted in BALB/c mouse assessed as reduction in Cd44 mRNA expression level in tumor at 30 mg/kg, ip QD by qRT-PCR analysis

CT26 [24] = experiment: cells; settings: Mus musculus, CT26, 48 h

half-life [1]: 20.9 min
microsomal CLint [2]: 66.2 µL/min/mg
half-life [3]: 32.1 min
AUC(0-inf) [15]: 17400 ng·h/mL
IC50 (CT26 [24]): 69.7 µM
Structure (SMILES): CC(C)c1ccc(-c2cccc(S(=O)(=O)N3CCCC(c4cccc(OC(C)(C)C(=O)NS(=O)(=O)c5ccc(C(F)(F)F)cc5)c4)C3)c2)cc1 (configuration not stated)
Activity (HEK293): 16.6%
Activity (HCT-116 [4]): 2%
Activity (HCT-116 [5]): 33.1%
viability at 20 µM (HCT-116 [6]): 37.3%
Activity (CT26 [7]): 1.91%
Activity (CT26 [8]): 1.42%
viability at 10 µM (CT26 [9]): 43.8%
Activity (RKO): inactive
Activity (EL4): Dose-Dependent Effect
Activity (CT26 [10]): Dose-Dependent Effect
Activity [11]: Non-Toxic
Activity [12]: Non-Toxic
Activity [13]: Non-Toxic
Activity [14]: Non-Toxic
Activity (CT26 [16]): Active
Activity (CT26 [17]): Active
Activity (CT26 [18]): Active
Activity (CT26 [19]): Active
Activity (CT26 [20]): Active
Activity (CT26 [21]): Active
inhibition (CT26 [22]): Active
inhibition (CT26 [23]): Active
